Laboratory results from publication PMC9490060, “Synthesis and evaluation of anticancer activity of quillaic acid derivatives: A cell cycle arrest and apoptosis inducer through NF-κB and MAPK pathways” (Frontiers in Chemistry, 2022).

Assays:
[1] = system: NF-κB p65; test: Western blot, NF-κB signaling pathway: NF-κB p65; assay type: cell-based, human; settings: HCT116, 2.5, 5 and 10 μM, 24 h
Description: The NF-κB pathway plays an important role in a variety of cellular functions, including cell growth, apoptosis, and tumorigenesis ([Hwang et al., 2012]). Interfering with NF-κB signaling can inhibit tumor cell proliferation and metastasis ([Yenmis et al., 2021]). Therefore, NF-κB inhibitors are considered as potential anticancer drugs ([Wang et al., 2017]).
(§1) FIGURE 8 Effect of compound E on NF-κB signaling pathway in HCT116 cells. Cells were pretreated with the various concentrations of compound E (2.5, 5 and 10 μM) for 24 h. The expression of phospho-NF-κB p65, NF-κB p65, phospho-IκB, IκB were analyzed by Western blot. ***p < 0.001, **p < 0.01, *p < 0.05 vs. control group. The error bars represent the mean ± SD for three independent experiments.
(§2) HCT116 cells were cultured with different concentrations of compound E for 24 h. Then, the floating cells were collected and washed twice with ice-cold PBS. Add cold RIPA buffer. After the cells were lysed on ice for 20 min, the lysate was centrifuged at 12,000 rpm for 15 min at 4°C. The BCA method determines the protein concentration. Separated by SDS/PAGE electrophoresis and transferred to a nitrocellulose filter membrane for Western blot analysis. The membrane was blocked with PBS containing 5% skim milk at room temperature for 2 h. […] The protein is detected by electrochemiluminescence (Bio-Rad, CA, United State).

[2] = system: HCT116 cells; test: Cell cycle analysis by flow cytometry; assay type: cell-based, human; settings: HCT116, 30 μM, 24 h; control 53.9
Procedure: Inoculate HCT116 cells in a 6-well plate (5.0 × 10^5 cells per well) and incubate at 37°C for 24 h. The exponentially growing cells were then incubated with compound E at 10 and 30 μM. After 24 h, untreated cells (control) or cells treated with compound E were centrifuged at 1,000 rpm for 15 min, and then fixed in 70% ethanol at […] for at least 24 h. The cells were then resuspended in phosphate buffered saline (PBS) containing 0.1 mg/ml RNase A and 5 mg/ml PI. The DNA content of cells used for cell cycle distribution analysis was measured by flow cytometry, and analyzed using FACSalibur flow cytometer and Cell Quest software (Becton-Dickinson, Franklin Lakes, NJ, United States).

[3] = system: Bax; test: Western blot, Bax expression; assay type: cell-based, human; settings: HCT116, 10 μM, 24 h
Procedure: The Bcl-2 protein family (including the anti-apoptotic protein Bcl-2 and the pro-apoptotic protein Bax) is a group of key apoptotic proteins that play an important role in the regulation of apoptosis ([Han et al., 2013]; [Zhang and Saghatelian, 2013]; [Zheng et al., 2021]). HCT116 cells were treated with different concentrations (2.5, 5, and 10 μM) of E to detect the expression of Bax and Bcl-2 proteins.
as §1, with “7” for “8”, “the levels of Bax, and Bcl-2” for “NF-κB signaling pathway”, “Bax, and Bcl-2” for “phospho-NF-κB p65, NF-κB p65, phospho-IκB, IκB”
as §2

[4] = system: HCT116 (human colorectal cancer cell line); test: MTT anti-proliferative assay, HCT116; assay type: cell-based; settings: means ± SD, n = 3
Procedure, shortened: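 Cells seeded at 1 × 10^4–1.2 × 10^4 per well were allowed to adhere 24 h, then exposed 48 h at 37 °C, 5% CO2 to compound at 1.25, 2.5, 5 and 10 μM (DMSO ≤0.1%). MCF-7 and HepG2 were grown in DMEM, HCT116 and BEL7402 in RPMI 1640, each with 10% FBS. MTT (final 2 mg/ml) was added for 4 h; formazan was dissolved in DMSO and read at 492 nm.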

**Q.** Which melting point does the source give for CC1(C)CC[C@]2(C(=O)OCCn3nnnc3-c3ccccc3)[C@H](O)C[C@]3(C)C(=CC[C@@H]4[C@@]5(C)CC[C@H](O)[C@@](C)(C=O)[C@@H]5CC[C@]43C)[C@@H]2C1 [Compound E, 2-(5-phenyl-1H-tetrazol-1-yl)ethyl (4aR,5R,6aS,6bR,8aR,9S,10S,12aR,12bR,14bS)-9-formyl-5,10-dihydroxy-2,2,6a,6b,9,12a-hexamethyl-1,3,4,5,6,6a,6b,7,8,8a,9,10,11,12,12a,12b,13,14b-octadecahydropicene-4a (2H)-carboxylate] here?
**A.** The melting point was 196 to 198 °C.

**Q.** What about the “effect on NF-κB p65” value [1] of the same compound?
**A.** Its value is “no inhibitory effect”.

**Q.** And the “%G1” value [2]?
**A.** The value was 81.2%.

**Q.** And the “expression of Bax” value [3]?
**A.** The value was “significantly increased”.

**Q.** What about the “IC50 values HCT116” value ([4]; 48 h incubation) of the same compound?
**A.** The value was “strong activity”.

**Q.** What about the IC50 ([4]; Homo sapiens, HCT-116, 48 h incubation) of the same compound?
**A.** The IC50 was 2460 ± 440 nM.
